Where two headings read alike, the source gives them in different places.
Key:
[1] = biological target: T1, α-glucosidase (EC3.2.1.20) (Saccharomyces cerevisiae, UniProt P53341); experiment: α-Glucosidase inhibition; format: biochemical
T1 construct: purchased Sigma Chemical Company
Protocol: The assay was conducted essentially according to the procedure of H. L. Lai, as described in Biochem. Biophys.
The α-glucosidase (EC3.2.1.20) was purchased from Sigma Chemical Company. The enzyme solution (100 μg/ml, 0.1 ml), 0.1 M phosphate buffer (pH 6.8, 2.55 ml), 10 mM nitrophenyl glucoside (0.1 ml), and a sample solution in DMSO (0.15 ml) were combined and incubated for 10 minutes at 37° C. After incubation, the hydrolysis was stopped by the addition of 1 ml of 16(w/v)% of sodium carbonate. Liberated p-nitrophenol was measured at 400 nm.

[2] = Effect on fat content of broiler chickens; format: in vivo; conditions: 27 days; for Fat Weight / Final Body Weight: broilers
Protocol: Four groups of 5 seven-day old broiler having an average weight of 129 g were used. A test diet was available ad libitum to all birds during the test period (27 days).
Control birds received no test compound. […] At the conclusion of the test, all birds were sacrificed and processed to determine fat weights and body weights. Feed intake was also recorded.

[3] = Toxicity in mice over 4 weeks; format: in vivo; conditions: 300 mg/kg dose, over a period of 4 weeks
From the text: This finding, combined with in vitro enzyme inhibiting activities, provides evidence that the naturally occurring phenols of the formula (I) have unexpected utility in treating obesity in a mammalian subject.

[4] = Effect on body weight of slightly obese mice, drug-food mixture; format: in vivo, mice (ICR); conditions: for Body weight change compared with control group (in words): 4 weeks; for Body weight gain, Week Four / Body weight gain, Week One / Body weight gain, Week Three / Body weight gain, Week Two: ad libitum, female ICR mice
Protocol: Slightly obese female mice (ICR) having an average weight of 20-25 g were used in these studies. Compound 1 (Example 1; anacardic acid) was administered as a drug-food mixture. Normal mouse chow was powdered and the drug added to achieve a final concentration of 1 mg (low dose), 3 mg (intermediate dose), and 10 mg (high dose) per 100 g of food. The powdered chow was then repelleted into its usual form. Control chow was similarly prepared without addition of drug. Four groups of ten animals were assigned to receive normal chow (controls) or the drug in the low dose, in the intermediate dose or in the high dose. The animals were fed ad libitum over a 4-week period.

[5] = Effect on body fat in rats on carbohydrate enriched diet; format: in vivo, Sprague-Dawley rats; conditions: for Epididymal Fat Weight / Final Body Weight / Inguinal Fat Weight: male rats
From the text: Male Sprague-Dawley weanling rats (Bioresearch Services, Oriental Yeast Co. Ltd.) of three weeks old were used in this study. They were allotted to two treatment groups of five rats when they weighed an average of about 65 g. The animals were fed carbohydrate enriched diets ad libitum for a period of 31 days.
Control rate received the above diet. Two groups received different levels of compound 1 (Example 1), 0.1% and 0.2%, respectively. At the conclusion of the test, all animals were sacrificed. Inguinal fat, epididymal fat, liver, kidney, spleen, lung, heart, thymus gland, brown adipose tissue and pectoral muscle were excised and weighted.

[6] = biological target: T2, invertase (or β-fructofuranosidase; EC 3.2.1.26) (Saccharomyces cerevisiae, UniProt P00724); experiment: Invertase inhibition; format: biochemical; conditions: 200 μg/ml; pH 4.5, sucrose substrate; read-out: % Inhibition of invertase enzyme activity
T2 construct: purchased Sigma Chemical Company
T2 sequence (P00724 20-532): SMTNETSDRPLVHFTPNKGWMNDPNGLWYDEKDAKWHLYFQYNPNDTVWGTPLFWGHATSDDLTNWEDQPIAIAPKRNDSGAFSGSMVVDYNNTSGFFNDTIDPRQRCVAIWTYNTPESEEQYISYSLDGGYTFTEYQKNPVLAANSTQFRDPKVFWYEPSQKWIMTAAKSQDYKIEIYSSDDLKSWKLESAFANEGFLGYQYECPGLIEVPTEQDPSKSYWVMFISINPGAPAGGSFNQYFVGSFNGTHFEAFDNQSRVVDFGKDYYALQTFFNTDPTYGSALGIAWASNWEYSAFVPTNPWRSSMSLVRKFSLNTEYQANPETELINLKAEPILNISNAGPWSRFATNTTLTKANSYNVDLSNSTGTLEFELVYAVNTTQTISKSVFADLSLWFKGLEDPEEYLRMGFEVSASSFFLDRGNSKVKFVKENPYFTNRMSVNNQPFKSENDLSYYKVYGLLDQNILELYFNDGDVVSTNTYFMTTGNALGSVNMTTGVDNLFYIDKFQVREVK
Protocol: The following phenols (compound numbers correspond to those designated in Example 1) were tested at a concentration of 200 μg/ml for their ability to inhibit invertase enzyme activity. The assay was conducted essentially according to the procedure of I. H. Segel, et al., as described in Biochemical Calculation, John Wiley Sons, New York, p. 287-290 (1976).
The invertase (or β-fructofuranosidase; EC 3.2.1.26) was purchased from Sigma Chemical Company. The enzyme solution (100 μg/ml, 0.1 ml), 0.2 M acetate buffer (pH 4.5, 0.2 ml), 0.5 M sucrose (0.2 ml), and a sample solution in water/DMSO (0.6 ml) were combined and incubated for 10 minutes at 37° C. After incubation, the hydrolysis was stopped by the addition of Nelson reagent. Liberated reduced sugar was measured at 500 nm by the method of Somogyi-Nelson [N. Nelson, et al., J. Biol. Chem., 153, 375 (1944)].

[7] = 10 minutes at 37° C., pH 6.8, nitrophenyl glucoside substrate
[8] = High dose, 10 mg per 100 g of food
[9] = Intermediate dose, 3 mg per 100 g of food
[10] = Low dose, 1 mg per 100 g of food

T1 sequence (P53341 whole entry): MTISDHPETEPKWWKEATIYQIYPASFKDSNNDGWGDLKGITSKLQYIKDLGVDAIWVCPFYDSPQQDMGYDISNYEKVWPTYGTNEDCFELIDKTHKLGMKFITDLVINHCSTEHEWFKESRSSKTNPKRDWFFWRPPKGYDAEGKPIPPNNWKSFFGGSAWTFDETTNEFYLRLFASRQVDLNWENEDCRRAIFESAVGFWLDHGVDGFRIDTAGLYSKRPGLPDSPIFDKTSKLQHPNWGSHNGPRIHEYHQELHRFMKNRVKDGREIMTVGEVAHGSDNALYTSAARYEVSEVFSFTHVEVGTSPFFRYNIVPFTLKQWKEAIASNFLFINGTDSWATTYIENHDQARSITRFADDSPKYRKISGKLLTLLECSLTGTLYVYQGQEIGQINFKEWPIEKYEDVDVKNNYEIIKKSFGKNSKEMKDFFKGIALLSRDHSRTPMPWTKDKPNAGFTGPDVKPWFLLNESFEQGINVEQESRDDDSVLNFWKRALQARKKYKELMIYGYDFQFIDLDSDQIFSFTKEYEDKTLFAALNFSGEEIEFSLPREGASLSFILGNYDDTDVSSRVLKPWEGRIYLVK

CCCCCCCCCCCCCCCc1cccc(O)c1C(=O)O [Compound 1, 6 - Pentadecylsalicylic Acid]
IC50 [1, 7]: 7.17 µM
Fat Weight ([2]; 0.1% in diet): 12 g
Final Body Weight ([2]; 0.1% in diet): 110 g
Fat Weight ([2]; 0.2% in diet): 10 g
Final Body Weight ([2]; 0.2% in diet): 108 g
Loss of the initial body weight ([2]; birds receiving anacardic acid in diet): approximately 10%
Toxicity [3]: no toxicity
Body weight change compared with control group (in words) [4, 8]: gained less weight than mice in the control group
Body weight gain, Week Four [4, 8]: +4.75 g
Body weight gain, Week One [4, 8]: +0.31 g
Body weight gain, Week Three [4, 8]: +4.13 g
Body weight gain, Week Two [4, 8]: +1.88 g
Body weight change compared with control group (in words) [4, 9]: gained less weight than mice in the control group
Body weight gain, Week Four [4, 9]: +5.00 g
Body weight gain, Week One [4, 9]: +0.56 g
Body weight gain, Week Three [4, 9]: +4.5 g
Body weight gain, Week Two [4, 9]: +2.13 g
Body weight change compared with control group (in words) [4, 10]: no significant deviation in body weight from the control group
Body weight gain, Week Four [4, 10]: +5.13 g
Body weight gain, Week One [4, 10]: +0.63 g
Body weight gain, Week Three [4, 10]: +4.63 g
Body weight gain, Week Two [4, 10]: +2.19 g
Epididymal Fat Weight ([5]; 0.1% in diet, 31 days): 3.2 g
Final Body Weight ([5]; 0.1% in diet, 31 days): 301.6 g
Inguinal Fat Weight ([5]; 0.1% in diet, 31 days): 7.1 g
Epididymal Fat Weight ([5]; 0.2% in diet, 31 days): 3.7 g
Final Body Weight ([5]; 0.2% in diet, 31 days): 311.0 g
Inguinal Fat Weight ([5]; 0.2% in diet, 31 days): 7.5 g
Reduction in fat deposition ([5]; anacardic acid in the animal diet, statement on Tables 4 and 7 (broilers and rats)): ≥ 20%
Loss of initial body weight ([5]; rats receiving anacardic acid in diet, 31 days): less than 10%

CCC/C=C\C/C=C\CCCCCCCc1cccc(O)c1C(=O)O [Compound 3, 6-[8(z), 11(z)-pentadecadienyl] salicylic acid]
IC50 [1, 7]: 3.77 µM

C=CC/C=C\C/C=C\CCCCCCCc1cccc(O)c1C(=O)O [Compound 4, 6-[8(z), 11(z), 14pentadecatrienyl] salicylic acid]
inhibition at 200 µg/mL [6]: 73%
IC50 [1, 7]: 0.876 µM

CCCCCCCCCCCCCCCc1cccc(O)c1 [Compound 5, 3 - Pentadecylphenol]
IC50 [1, 7]: 483 µM

CCCCCCCCCCCCCCCc1cc(O)c(C)c(O)c1 [Compound 9, 2-Methyl-5-pentadecylresorcinol]
IC50 [1, 7]: 38.9 µM

CCCCCC/C=C\CCCCCCCc1cc(O)c(C)c(O)c1 [Compound 10, 2-methyl-5-[8(z)-pentadecenyl]resorcinol]
IC50 [1, 7]: 165 µM

CCC/C=C\C/C=C\CCCCCCCc1cc(O)c(C)c(O)c1 [Compound 11, 2-methyl-5-[8(z), 11(z)-pentadecadienyl] resorcinol]
IC50 [1, 7]: 151 µM

C=CC/C=C\C/C=C\CCCCCCCc1cc(O)c(C)c(O)c1 [Compound 12, 2-methyl-5-[8(z), 11(z), 14-pentadecatrienyl]resorcinol]
inhibition at 200 µg/mL [6]: 79%
IC50 [1, 7]: 170 µM

CCCCCCCCCCCCCCCc1cc(O)cc(O)c1 [Compound 13, 5-Pentadecylresorcinol]
IC50 [1, 7]: 268 µM

C=CC/C=C\C/C=C\CCCCCCCc1cc(O)cc(O)c1 [Compound 16, 5-[8(z), 11(z), 14-pentadecatrienyl]resorcinol]
inhibition at 200 µg/mL [6]: 32%
IC50 [1]: 44.5 µM

From US5240962A, “Antiobesity and fat-reducing agents” (priority 1991, dated 1993)
